Patent US5225543A, “Receptors method for purification of G protein-linked” (priority 1991, dated 1993)

What was measured:
[1] = target: T1, SRIF receptor (GH4 C1 membranes) (Rattus norvegicus, UniProt P30680); assay: Purification method as receptor assay: binding of biotinyl-S28 to GH4 C1 membranes (FIG. 10); settings: 10 nM B28 in binding step
T1 construct: GH4 C1 rat pituitary tumor cells; endogenous in cells; host or cells: GH4 C1 rat pituitary tumor cells (isolated membranes)
Procedure: Soluble material is adsorbed to streptavidin-Sepharose for 4 hours and eluted with 100 uM GTP-gamma-S+100 uM EDTA+100 uM EGTA. Then the GTP-gamma-S eluates are incubated overnight with immobilized wheat germ agglutinin (to adsorb glycoproteins, including the receptor).
The WGA-agarose pellets are washed and then boiled in SDS polyacrylamide gel sample buffer (to melt the agarose and solubilize proteins). […] The proteins not bound to WGA are processed separately and also separated by SDS-PAGE (FIG. 10C).

streptavidin = target: T2, streptavidin (Streptomyces avidinii, UniProt P22629); assay: Tracing of SRIF R:L complex with [^125 I]Bio-S28 during purification: binding to immobilized streptavidin (Table 4)
T2 construct: purchased Pierce Chemical Co
Procedure: 3. Adsorption of solubilized R:L complex to streptavidin. Immobilized streptavidin (streptavidin cross-linked to 6% beaded agarose, Pierce Chemical Co.; "SA-agarose") is washed in solubilization buffer and added to the solubilized membranes as 1/30 of the final volume. This mixture is incubated with constant stirring by end-over-end rotation for 4-5 hours at 4°-10° C. Then the mixture is applied to a column and the non-bound material is washed through. Binding of radioligand to SA-agarose is determined by comparing cpm in the 100,000×g supernatant with that in the column effluent after adsorption to SA-agarose. Finally, the column is washed with 12-15 column volumes of solubilization buffer+0.15% deoxycholate:lysolecithin+1/500 (vol/vol) 100×4pase.
(§1) A preparation of SRIF receptor is purified from 17 mg GH4 C1 pituitary cell membranes as described in "Methods: Receptor Purification". Some important features of this experiment are as follows: Two 17 mg samples of membranes are used. Both are incubated with 10^-8 M Bio-S28. However, one sample also receives 10^-5 M non-biotinyl S14 for 23 minutes before addition of any Bio-S28. This serves to block binding of Bio-S28 and creates a control to show non-specific binding of proteins to the streptavidin column. Also, each sample received 1.5×10^8 cpm of [^125 I]Bio-S28 as a tracer. This is added 2-3 minutes before the addition of cold Bio-S28. After a 1-hour binding step, the membranes are washed in binding buffer without BSA and solubilized in solubilization buffer containing 0.15% deoxycholate:lysolecithin and 0.2 mM MgCl2. Each 100,000×g supernatant (17 ml) is incubated with 0.6 ml of streptavidin-agarose for 4 hours at 4°-10° C. The SA-agarose is transferred to a 0.7 cm diameter column, washed and eluted with EDTA/EGTA/GTP-gamma-S as described ("Methods: Receptor Purification").
(§2) Radioligand is followed through the procedure to estimate solubilization of R:L complex and % initial binding of R:L complex to immobilized streptavidin.

[2] = target: T1, SRIF receptor (GH4 C1 membranes); assay: Tracing of SRIF R:L complex with [^125 I]Bio-S28 during purification: membrane binding and solubilization (Table 4)
Procedure: 1. Binding of biotinyl-SRIF to GH4 C1 membranes. The binding step is carried out as described in Section 4 of "Receptor Binding Methods". Incubations are for 1 hour at room temperature. In the standard purification protocol, the binding incubations contain 10 nM […]/[^125 I]Bio-S28 is added as a tracer at levels of 5,000-100,000 cpm per mg of membrane protein. Control incubations contain 10 uM cold S14 to saturate the receptor with non-biotinylated ligand.
2. Solubilization of receptor:ligand complex. This is done as described ("Membrane Solubilization"), with 0.15% deoxycholate:lysolecithin in solubilization buffer containing 0.2 mM MgCl2, to obtain 100,000×g supernatants containing solubilized R:L complex.
as §1, §2

[3] = target: T1, SRIF receptor (GH4 C1 membranes); assay: Competitive radioligand binding vs [^125 I]Tyr11-S14 on GH4 C1 membranes (FIG. 4); settings: vs [^125 I]Tyr11-S14; 20 ug GH4 C1 membrane protein, 100,000 cpm (FIG. 4B)
Procedure: Membrane Isolation--1-8 liter batches of cells at densities of 6-10×10^5 cells/ml are pelleted in conical bottom glass centrifuge bottles (600 or 800 ml; Bellco) at 1,000× g for 5 min. The supernatants are carefully poured off and the cells are resuspended in ice cold homogenization medium (1 mM Na-bicarbonate at pH 7.6, 1 mM EDTA and 1 mM EGTA) containing 0.7% (vol/vol) of the "100×4pase" protease inhibitor cocktail (see below). Twenty ml of homogenization medium is used for every liter of suspension culture. After 5 min. on ice, the hypotonically swollen cells are homogenized with 10 strokes of a tight fitting Dounce homogenizer (Kontes, type A pestle). The homogenate is centrifuged at 1,000× g for 10 min. and the supernatant is removed and kept on ice. The 1,000× g pellet containing residual intact cells, nuclei and DNA is washed by gently homogenizing with 4 strokes with a type B pestle in one half the original volume of homogenization medium and recentrifuging for 10 min. at 1,000× g. The final 1,000× g pellet consists mostly of DNA and is discarded. The 1,000× g supernatants are combined and centrifuged at 20,000× g for 30 min. The 20,000× g pellet is washed twice in 25 mM Tris (pH 7.4), with centrifugation for 25 min. at 20,000 2 g. Final membrane pellets are resuspended in 25 mM Tris buffer to concentrations of 4-10 mg membrane protein/ml. Then the 100× 4pase protease inhibitor cocktails are added to 1% of final volume and aliquots are frozen on dry ice. Membranes are stored at -90° C. until needed. Membrane protein is assayed with the Bradford dye binding assay (Bio-Rad).
Standard Binding Assays--Binding assays are done in a binding buffer containing 50 mM HEPES (pH 7.4), 0.5% BSA and 5 mM MgCl2. The standard assay for [^125 I]SRIF analog binding to GH4 CL membranes, done in 96 well microtiter plates (Dynatech Immulon II Removawell plates), is carried out as follows: 1. Radioligand is diluted in binding buffer+PMSF/Baci to the desired cpm per vol. of 50 μl and then 50 μl aliquots are added to the wells. For non-specific binding samples, 5 μl of 40 μM cold S14 is also added per well. […] Binding is initiated by adding 150 μl per well of membrane diluted to the desired concentration (10-30 ug membrane protein/well) in binding buffer+PMSF/Baci. Plates are then covered with Linbro mylar plate sealers (Flow Labs) and placed on a Dynatech Microshaker II and binding is allowed to proceed at room temperature for 1-2 hours. Binding is stopped by centrifuging the plate for 15 minutes at 2,000×g. The supernatants are dumped off and membrane pellets washed once by addition of 200 μl of ice cold binding buffer, brief shaking and recentrifugation. Finally the individual wells are placed in 12×75 mm tubes and counted in an LKB Gammamaster counter (78% efficiency). […]

[4] = 10^-8 M Bio-S28 + 10^-5 M S14 (NSB)
[5] = 10^-8 M Bio-S28, [^125 I]Bio-S28 tracer, 4 hours
[6] = 10^-8 M Bio-S28, [^125 I]Bio-S28 tracer

T1 sequence (P30680 whole entry): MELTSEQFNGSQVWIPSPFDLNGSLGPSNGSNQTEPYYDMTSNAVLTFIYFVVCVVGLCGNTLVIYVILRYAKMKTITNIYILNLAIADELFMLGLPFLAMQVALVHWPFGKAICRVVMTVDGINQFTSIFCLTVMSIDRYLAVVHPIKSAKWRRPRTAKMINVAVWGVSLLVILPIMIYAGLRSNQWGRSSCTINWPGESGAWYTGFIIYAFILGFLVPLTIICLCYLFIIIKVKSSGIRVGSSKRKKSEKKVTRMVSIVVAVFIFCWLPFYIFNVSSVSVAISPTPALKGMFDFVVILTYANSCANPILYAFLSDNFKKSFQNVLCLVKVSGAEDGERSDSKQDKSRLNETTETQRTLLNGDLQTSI
T2 sequence (P22629 25-183): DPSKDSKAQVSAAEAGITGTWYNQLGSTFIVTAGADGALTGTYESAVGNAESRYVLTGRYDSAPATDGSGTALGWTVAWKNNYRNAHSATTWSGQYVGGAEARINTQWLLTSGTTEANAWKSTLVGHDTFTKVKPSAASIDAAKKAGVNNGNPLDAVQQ

Biotinyl-NH-(Leu8, D-Trp22, Tyr25)SRIF28 [Bio-S28]
total specific binding at or near saturation [1]: 1.8 pmol | Solubilized CPM non-bound to streptavidin (%) (NSB) (streptavidin; [4]): 15% | Solubilized CPM non-bound to streptavidin (NSB) (streptavidin; [4]): 1,054 CPM | Solubilized CPM non-bound to streptavidin (streptavidin; [5]): 14,960 CPM | Solubilized CPM non-bound to streptavidin (%) (streptavidin; [5]): 28% | CPM initially bound to membranes (NSB) [2, 4]: 9,316 CPM | CPM solubilized by deoxycholate:lysolecithin (%) (NSB) [2, 4]: 73% | CPM solubilized by deoxycholate:lysolecithin (NSB) [2, 4]: 6,834 CPM | CPM initially bound to membranes [2, 6]: 59,132 CPM | CPM solubilized by deoxycholate:lysolecithin [2, 6]: 54,094 CPM | CPM solubilized by deoxycholate:lysolecithin (%) [2, 6]: 91% | IC50 [3]: 300 pM
